MED data for 34 compounds are collected here from ChEMBL document CHEMBL3045621, “Synthesis and Structure-activity Relationships of Herbicidal Thiophene Sulfonylurea Compounds” (J Pestic Sci, 1997).

The test system of one series is Echinochloa oryzicola. In words: Herbicidal activity against Echinochloa oryzicola assessed as dose required to cause sufficient herbicidal activity. In kind it is functional.
The subject of another series is Sagittaria pygmaea. Put plainly: Herbicidal activity against Sagittaria pygmaea assessed as dose required to cause sufficient herbicidal activity after 5 to 7 days. In kind it is functional.
Series [1] has as its system Schoenoplectiella juncoides. Put plainly: Herbicidal activity against Schoenoplectiella juncoides assessed as dose required to cause sufficient herbicidal activity after 5 to 7 days. In kind it is functional.
In a further series the test system is Oryza sativa. In words: Toxicity in two leaf stage of Oryza sativa var. Nihonbare (rice) assessed as dose required to selectivity to Oryza sativa. In kind it is organism-based. The following applies: in vivo.

Structures are written as SMILES.

As for `COc1cc(OC)nc(NC(=O)NS(=O)(=O)c2sccc2COC(C)(C)C(F)(F)F)n1`, the MED in the series with Echinochloa oryzicola stood at 20 g/acre; with Sagittaria pygmaea, 2.5 g/acre; in series [1], 1.25 g/acre; in the series on Oryza sativa, 2.5 g/acre.
For the compound `CCN(C)Cc1ccsc1S(=O)(=O)NC(=O)Nc1nc(OC)cc(OC)n1`, the MED in the series with Echinochloa oryzicola is on record as 20 g/acre; in the series on Sagittaria pygmaea it was 5 g/acre; in series [1], 10 g/acre; with Oryza sativa, 20 g/acre.
Turning to `COc1nc(NC(=O)NS(=O)(=O)c2ccccc2COCCF)nc(OC)n1`, the MED in the series with Echinochloa oryzicola came to 40 g/acre; in the series with Sagittaria pygmaea, 10 g/acre; in series [1], 40 g/acre; with Oryza sativa, 2.5 g/acre.
Consider `C=CCOCc1ccsc1S(=O)(=O)NC(=O)Nc1nc(OC)cc(OC)n1`, for which the MED is recorded as 0.625 g/acre in the series with Echinochloa oryzicola, 0.156 g/acre with Sagittaria pygmaea, 0.156 g/acre in series [1] and 0.313 g/acre in the series on Oryza sativa.
On to `COc1cc(OCC(F)(F)F)nc(NC(=O)NS(=O)(=O)c2sccc2COCCF)n1`, for which the MED in the series with Echinochloa oryzicola was determined as 20 g/acre; in the series on Sagittaria pygmaea it was 2.5 g/acre; in series [1], 10 g/acre; in the series on Oryza sativa, 5 g/acre.
Turning to `COc1nc(NC(=O)NS(=O)(=O)c2csnc2COCCF)nc(OC)n1`, the MED in the series with Echinochloa oryzicola is recorded as 5 g/acre; in the series on Sagittaria pygmaea it was 0.313 g/acre; in series [1], 1.25 g/acre; in the series with Oryza sativa it was more than 0.313 g/acre.
As to `COc1cc(OC)nc(NC(=O)NS(=O)(=O)c2sccc2COCC(Cl)(Cl)Cl)n1`, the MED was found to be 5 g/acre in the series with Echinochloa oryzicola, 2.5 g/acre in the series on Sagittaria pygmaea, 2.5 g/acre in series [1] and 1.25 g/acre in the series on Oryza sativa.
`COc1nc(NC(=O)NS(=O)(=O)c2snc(C)c2COCCF)nc(OC)n1`: the MED in the series with Echinochloa oryzicola was 1.25 g/acre; in the series on Sagittaria pygmaea it was 1.25 g/acre; in series [1], 1.25 g/acre; in the series with Oryza sativa, 2.5 g/acre.
With `COc1cc(OC)nc(NC(=O)NS(=O)(=O)c2sccc2COCC(F)(F)F)n1`, the MED in the series with Echinochloa oryzicola stood at 2.5 g/acre; in the series with Sagittaria pygmaea it was 0.156 g/acre; in series [1] it was 0.156 g/acre; with Oryza sativa, 1.25 g/acre.
As to `COc1cc(OC)nc(NC(=O)NS(=O)(=O)c2sccc2COCC(F)(F)C(F)(F)F)n1`, the MED with Echinochloa oryzicola came out at 5 g/acre; with Sagittaria pygmaea, 2.5 g/acre; in series [1] it was 1.25 g/acre; in the series on Oryza sativa, 0.625 g/acre.
Taken in the same sequence, the figures for `COc1cc(Cl)nc(NC(=O)NS(=O)(=O)c2sccc2COCCF)n1` were 0.156 g/acre, 0.313 g/acre, 0.156 g/acre and 0.625 g/acre.
On to `COc1cc(OC)nc(NC(=O)NS(=O)(=O)c2sccc2COCCF)n1`, for which the MED in the series with Echinochloa oryzicola is listed as 0.313 g/acre; in the series on Sagittaria pygmaea, 0.0391 g/acre; in series [1], 0.0391 g/acre; in the series with Oryza sativa it was 0.0781 g/acre.
With `COc1cc(OC)nc(NC(=O)NS(=O)(=O)c2sccc2Cn2cc(C(F)(F)F)ccc2=O)n1`, the MED (in the series with Echinochloa oryzicola; in the series on Sagittaria pygmaea; in series [1]; with Oryza sativa) was 40 g/acre in each case.
Regarding `COc1nc(NC(=O)NS(=O)(=O)c2sc3ccccc3c2COCCF)nc(OC)n1`, the MED (in the series with Echinochloa oryzicola; with Sagittaria pygmaea; in series [1]; with Oryza sativa) was less than 2.5 g/acre throughout.
In the case of `COc1cc(OC)nc(NC(=O)NS(=O)(=O)c2sccc2CSC#N)n1`, the MED was 1.25 g/acre in the series with Echinochloa oryzicola, 0.625 g/acre with Sagittaria pygmaea, 1.25 g/acre in series [1] and 0.313 g/acre in the series with Oryza sativa.
Take `COC(=O)Cc1ccsc1S(=O)(=O)NC(=O)Nc1nc(OC)cc(OC)n1`: the MED in the series with Echinochloa oryzicola is 1.25 g/acre; in the series with Sagittaria pygmaea it was 0.313 g/acre; in series [1] it was 1.25 g/acre; in the series on Oryza sativa, 0.156 g/acre.
As for `COc1cc(OC)nc(NC(=O)NS(=O)(=O)c2sccc2COc2ccccc2)n1`, the MED came out at 2.5 g/acre in the series on Echinochloa oryzicola, 0.313 g/acre in the series with Sagittaria pygmaea, 1.25 g/acre in series [1] and 0.625 g/acre in the series on Oryza sativa.
`COc1nc(NC(=O)NS(=O)(=O)c2ccc3ccccc3c2COCCF)nc(OC)n1`: the MED (with Echinochloa oryzicola; in the series with Sagittaria pygmaea; in series [1]; in the series with Oryza sativa) was less than 2.5 g/acre in each case.
As to `COc1cc(OC)nc(NC(=O)NS(=O)(=O)c2sccc2CNC(=O)CCl)n1`, the MED in the series with Echinochloa oryzicola amounted to 10 g/acre; in the series with Sagittaria pygmaea it was 5 g/acre; in series [1] it was 10 g/acre; in the series on Oryza sativa it was 5 g/acre.
For the compound `COc1nc(NC(=O)NS(=O)(=O)c2ccoc2COCCF)nc(OC)n1`, the MED is recorded as 1.25 g/acre in the series with Echinochloa oryzicola, 0.156 g/acre in the series on Sagittaria pygmaea, 0.625 g/acre in series [1] and 0.313 g/acre in the series on Oryza sativa.
On the same counts, the results for `COc1cc(OC)nc(NC(=O)NS(=O)(=O)c2sccc2COc2cccc(C(F)(F)F)c2)n1` are 5 g/acre, 20 g/acre, 20 g/acre and 0.625 g/acre.
Consider `COc1cc(C)nc(NC(=O)NS(=O)(=O)c2sccc2COCCF)n1`, for which the MED stood at 0.0195 g/acre in the series on Echinochloa oryzicola, 0.0391 g/acre with Sagittaria pygmaea, 0.0391 g/acre in series [1] and 0.156 g/acre in the series on Oryza sativa.
In the case of `CCOCc1ccsc1S(=O)(=O)NC(=O)Nc1nc(OC)cc(OC)n1`, the MED in the series on Echinochloa oryzicola worked out at 0.313 g/acre; in the series on Sagittaria pygmaea, 0.0391 g/acre; in series [1], 0.0391 g/acre; in the series on Oryza sativa, 0.156 g/acre.
For `COc1cc(OC)nc(NC(=O)NS(=O)(=O)c2sccc2COCC2CCCO2)n1` (stereo unspecified), the MED is given as 5 g/acre in the series with Echinochloa oryzicola, 10 g/acre in the series with Sagittaria pygmaea, 5 g/acre in series [1] and 0.625 g/acre in the series on Oryza sativa.
For `COc1cc(OC)nc(NC(=O)NS(=O)(=O)c2sccc2COCCCF)n1`, the MED with Echinochloa oryzicola was 0.313 g/acre; in the series with Sagittaria pygmaea, 0.156 g/acre; in series [1] it was 0.313 g/acre; in the series with Oryza sativa it was 0.625 g/acre.
`COc1cc(OC)nc(NC(=O)NS(=O)(=O)c2sccc2COCC(F)(F)C(F)(F)C(F)(F)F)n1`: the MED in the series on Echinochloa oryzicola turned out to be 10 g/acre; in the series with Sagittaria pygmaea it was 10 g/acre; in series [1], 20 g/acre; with Oryza sativa it was 0.625 g/acre.
On to `CNC(=O)NCc1ccsc1S(=O)(=O)NC(=O)Nc1nc(OC)cc(OC)n1`, for which the MED is given as 10 g/acre in the series on Echinochloa oryzicola, 10 g/acre in the series on Sagittaria pygmaea, 20 g/acre in series [1] and 2.5 g/acre in the series with Oryza sativa.
In the case of `COc1nc(NC(=O)NS(=O)(=O)c2scnc2COCCF)nc(OC)n1`, the MED (in the series with Echinochloa oryzicola; in the series with Sagittaria pygmaea; in series [1]; in the series with Oryza sativa) was 2.5 g/acre each time.
For `C#CCOCc1ccsc1S(=O)(=O)NC(=O)Nc1nc(OC)cc(OC)n1`, the MED came to 0.625 g/acre in the series on Echinochloa oryzicola, 0.0391 g/acre in the series on Sagittaria pygmaea, 0.0781 g/acre in series [1] and 0.156 g/acre in the series with Oryza sativa.
For the compound `COc1nc(NC(=O)NS(=O)(=O)Cc2sccc2COCCF)nc(OC)n1`, the MED with Echinochloa oryzicola is 80 g/acre; in the series on Sagittaria pygmaea, 20 g/acre; in series [1], 20 g/acre; in the series on Oryza sativa, less than 2.5 g/acre.
With `COc1cc(OC)nc(NC(=O)NS(=O)(=O)c2sccc2COCC(F)F)n1`, the MED turned out to be 1.25 g/acre in the series on Echinochloa oryzicola, 0.0391 g/acre in the series with Sagittaria pygmaea, 0.0781 g/acre in series [1] and 0.312 g/acre in the series with Oryza sativa.
Taken in the same sequence, the figures for `O=C(Nc1nc(OC(F)F)cc(OC(F)F)n1)NS(=O)(=O)c1sccc1COCCF` were 5 g/acre, 5 g/acre, 5 g/acre and 5 g/acre.
As to `COC(=O)NCc1ccsc1S(=O)(=O)NC(=O)Nc1nc(OC)cc(OC)n1`, the MED in the series on Echinochloa oryzicola amounted to 20 g/acre; with Sagittaria pygmaea, 0.313 g/acre; in series [1], 1.25 g/acre; with Oryza sativa, 2.5 g/acre.
`COc1nc(C)nc(NC(=O)NS(=O)(=O)c2sccc2COCCF)n1`: the MED was found to be 0.313 g/acre with Echinochloa oryzicola, 0.625 g/acre in the series on Sagittaria pygmaea, 0.313 g/acre in series [1] and 0.0781 g/acre in the series on Oryza sativa.
